Test results as given in patent US10316017B2, “COT modulators and methods of use thereof” (Gilead Sciences, Inc., priority 2015, dated 2019).

Key:
[1] = test system: TNFα production in LPS-stimulated human monocytes; assay: Cot Monocyte TNFα Cell Based Assay; settings: Homo sapiens, Monocyte, LPS-stimulated human monocytes, TNFα TR-FRET; read-out: EC50 TNF
Outline: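 5,000 cells/well; cmpd 1 h, 37 °C, 0.5% DMSO final; LPS 50 pg/ml, 4 h, 37 °C; media TNFα by HTRF sandwich (cryptate/XL665), RT overnight; % control vs unstimulated/stimulated wells.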

[2] = biological target: T1, human Cot catalytic domain (30-397 amino acids) (Homo sapiens, UniProt P41279); assay: High Throughput Cot Biochemical Assay (KinEASE TR-FRET); settings: Cot KinEASE TR-FRET, 400 μM ATP; read-out: IC50 HTRF
T1 construct: Purified recombinant human Cot catalytic domain (30-397 amino acids) was purchased from Cama Biosciences; purchased Cama Biosciences (so in the source)
T1 sequence (P41279 30-397): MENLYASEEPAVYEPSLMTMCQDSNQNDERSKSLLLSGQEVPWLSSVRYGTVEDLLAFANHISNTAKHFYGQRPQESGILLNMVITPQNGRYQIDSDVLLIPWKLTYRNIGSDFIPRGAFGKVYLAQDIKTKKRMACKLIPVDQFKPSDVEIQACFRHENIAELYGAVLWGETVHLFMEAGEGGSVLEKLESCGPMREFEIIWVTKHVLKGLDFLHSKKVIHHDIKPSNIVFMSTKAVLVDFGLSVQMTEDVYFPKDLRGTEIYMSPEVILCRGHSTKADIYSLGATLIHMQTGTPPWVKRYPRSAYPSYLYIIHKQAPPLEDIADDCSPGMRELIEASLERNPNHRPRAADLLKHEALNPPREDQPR
Outline: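 First, purified human Cot (aa 30-397) at 5 nM phosphorylates an XL665-labeled STK3 peptide (1 μM) at 400 μM ATP, pH 7.0, 0.1% DMSO. Then a europium-conjugated phospho-specific antibody binds the product, giving the TR-FRET signal.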

Structure (SMILES) | EC50 [1] [nM] | IC50 [2] [nM]
Cc1c(C#N)cccc1[C@H](Nc1cc(C#N)c2ncc(C#N)c(NCC(C)(C)C)c2c1)c1cn(C2(C(F)F)CC2)nn1 [Example 1013, (S)-6-(((3-cyano-2-methylphenyl)(1-(1-(difluoromethyl)cyclopropyl)-1H-1,2,3-triazol-4-yl)methyl)amino)-4-(neopentylamino)quinoline-3,8-dicarbonitrile] | 23 | 2
CC(C)(C)CNc1c(C#N)cnc2c(F)cc(N[C@H](c3cn(C4CC4)nn3)c3ccccc3Cl)cc12 [Example 1015, (S)-6-(((2-chlorophenyl)(1-cyclopropyl-1H-1,2,3-triazol-4-yl)methyl)amino)-8-fluoro-4-(neopentylamino)quinoline-3-carbonitrile] | 462 | 14
[2H][C@](Nc1cc(Cl)c2ncc(C#N)c(NCC(C)(C)c3ccccn3)c2c1)(c1ccc(F)cc1)c1cn(C2CC2)nn1 [Example 1016, (S)-8-chloro-6-(((1-cyclopropyl-1H-1,2,3-triazol-4-yl)(4-fluorophenyl)methyl-d)amino)-4-((2-methyl-2-(pyridin-2-yl)propyl)amino)quinoline-3-carbonitrile] | ≥ 1000 | 28
CC(C)(C)CNc1c(C#N)cnc2c(F)cc(N[C@H](c3cn(C4(C(F)(F)F)CC4)nn3)c3ccccc3Cl)cc12 [Example 1017, (S)-6-(((2-chlorophenyl)(1-(1-(trifluoromethyl)cyclopropyl)-1H-1,2,3-triazol-4-yl)methyl)amino)-8-fluoro-4-(neopentylamino)quinoline-3-carbonitrile] | ≥ 1000 | 85
[2H][C@](Nc1cc(C#N)c2ncc(C#N)c(NC3CCCC3(C)C)c2c1)(c1ccc(F)cc1)c1cn(C2(C(F)(F)F)CC2)nn1 (stereo partly drawn) [Example 1018, 4-((2,2-dimethylcyclopentyl)amino)-6-(((S)-(4-fluorophenyl)(1-(1-(trifluoromethyl)cyclopropyl)-1H-1,2,3-triazol-4-yl)methyl-d)amino)quinoline-3,8-dicarbonitrile] | 326 | 22
CC(C)(C)CNc1c(C#N)cnc2c(C#N)cc(N[C@H](c3cn(C4(C(N)=O)CCCC4)nn3)c3ccccc3Cl)cc12 [Example 1020, (S)-1-(4-((2-chlorophenyl) ((3,8-dicyano-4-(neopentylamino)quinolin-6-yl)amino)methyl)-1H-1,2,3-triazol-1-yl)cyclopentane-1-carboxamide] | 161 | 6
CC(C)(C)CNc1c(C#N)cnc2c(C#N)cc(N[C@H](c3cn(C4(C(N)=O)CCOCC4)nn3)c3ccccc3Cl)cc12 [Example 1023, (S)-4-(4-((2-chlorophenyl) ((3,8-dicyano-4-(neopentylamino)quinolin-6-yl)amino)methyl)-1H-1,2,3-triazol-1-yl)tetrahydro-2H-pyran-4-carboxamide] | ≥ 1000 | 21
Cc1ccccc1[C@H](Nc1cc(C#N)c2ncc(C#N)c(NCC(C)(C)C)c2c1)c1cn(C2(C#N)CC2)nn1 [Example 1024, (S)-6-(((1-(1-cyanocyclopropyl)-1H-1,2,3-triazol-4-yl)(o-tolyl)methyl)amino)-4-(neopentylamino)quinoline-3,8-dicarbonitrile] | 54 | 5
CC(C)(C)CNc1c(C#N)cnc2c(C#N)cc(N[C@H](c3cn(C4(C#N)CC4)nn3)c3ccccc3C(F)F)cc12 [Example 1025, (S)-6-(((1-(1-cyanocyclopropyl)-1H-1,2,3-triazol-4-yl)(2-(difluoromethyl)phenyl)methyl)amino)-4-(neopentylamino)quinoline-3,8-dicarbonitrile] | 131 | 10
CC(C)(C)CNc1c(C#N)cnc2c(C#N)cc(N[C@H](c3cn(C4(C#N)CC4)nn3)c3ccccc3CO)cc12 [Example 1026, (S)-6-(((1-(1-cyanocyclopropyl)-1H-1,2,3-triazol-4-yl)(2-(hydroxymethyl)phenyl)methyl)amino)-4-(neopentylamino)quinoline-3,8-dicarbonitrile] | 371 | 7
CC(C)(C)CNc1c(C#N)cnc2c(C#N)cc(N[C@H](c3cn(C4(C#N)CC4)nn3)c3cccc(C#N)c3Cl)cc12 [Example 1027, (S)-6-(((2-chloro-3-cyanophenyl)(1-(1-cyanocyclopropyl)-1H-1,2,3-triazol-4-yl)methyl)amino)-4-(neopentylamino)quinoline-3,8-dicarbonitrile] | 141 | 4
[2H][C@](Nc1cc(Cl)c2ncc(C#N)c(N[C@H](CC)c3ccccc3)c2c1)(c1ccc(F)cc1)c1cn(C2(C(F)F)CC2)nn1 [Example 1028, 8-chloro-6-(((S)-(1-(1-(difluoromethyl)cyclopropyl)-1H-1,2,3-triazol-4-yl)(4-fluorophenyl)methyl-d)amino)-4-(((R)-1-phenylpropyl)amino)quinoline-3-carbonitrile] | 259 | 17
CC(C)(C)CNc1c(C#N)cnc2c(Cl)cc(N[C@@H](c3cccc(-n4cncn4)c3)c3cn(C4CC4)nn3)cc12 [Example 1031, (S)-6-(((3-(1H-1,2,4-triazol-1-yl)phenyl)(1-cyclopropyl-1H-1,2,3-triazol-4-yl)methyl)amino)-8-chloro-4-(neopentylamino)quinoline-3-carbonitrile] | 118 | 1
CC(C)(C)CNc1c(C#N)cnc2c(Cl)cc(N[C@@H](c3cccc(-n4ccnc4)c3)c3cn(C4CC4)nn3)cc12 [Example 1032, (S)-6-(((3-(1H-imidazol-1-yl)phenyl)(1-cyclopropyl-1H-1,2,3-triazol-4-yl)methyl)amino)-8-chloro-4-(neopentylamino)quinoline-3-carbonitrile] | 161 | 1
CC(C)(C)CNc1c(C#N)cnc2c(Cl)cc(N[C@@H](c3cccc(-n4cccn4)c3)c3cn(C4CC4)nn3)cc12 [Example 1033, (S)-6-(((3-(1H-pyrazol-1-yl)phenyl)(1-cyclopropyl-1H-1,2,3-triazol-4-yl)methyl)amino)-8-chloro-4-(neopentylamino)quinoline-3-carbonitrile] | 456 | 2
[2H][C@](Nc1cc(C#N)c2ncc(C#N)c(NC3CCCC3(C)C)c2c1)(c1ccc(F)cc1)c1cn(C2CC2)nn1 (stereo partly drawn) [Example 1034, 6-(((S)-(1-cyclopropyl-1H-1,2,3-triazol-4-yl)(4-fluorophenyl)methyl-d)amino)-4-((2,2-dimethylcyclopentyl)amino) quinoline-3,8-dicarbonitrile] | 93 | 4

Further lines, results first:

EC50 [1] [nM] | IC50 [2] [nM] | Structure (SMILES)
106 | 3 | CC(C)(C)CNc1c(C#N)cnc2c(C#N)cc(N[C@H](c3cn(C4(C(N)=O)CCC4)nn3)c3ccccc3Cl)cc12 [Example 1014, (S)-1-(4-((2-chlorophenyl) ((3,8-dicyano-4-(neopentylamino)quinolin-6-yl)amino)methyl)-1H-1,2,3-triazol-1-yl)cyclobutane-1-carboxamide]
234 | 4 | CC(C)(C)CNc1c(C#N)cnc2c(C#N)cc(N[C@H](c3cn(C(C)(C)C(N)=O)nn3)c3ccccc3Cl)cc12 [Example 1021, (S)-2-(4-((2-chlorophenyl) ((3,8-dicyano-4-(neopentylamino)quinolin-6-yl)amino)methyl)-1H-1,2,3-triazol-1-yl)-2-methylpropanamide]
503 | 7 | CC(C)(C)CNc1c(C#N)cnc2c(C#N)cc(N[C@H](c3cn(C4(C(N)=O)CCOC4)nn3)c3ccccc3Cl)cc12 (stereo partly drawn) [Example 1022, 3-(4-((S)-(2-chlorophenyl) ((3,8-dicyano-4-(neopentylamino)quinolin-6-yl)amino)methyl)-1H-1,2,3-triazol-1-yl)tetrahydrofuran-3-carboxamide]
225 | 14 | [2H][C@@](Nc1cc(C#N)c2ncc(C#N)c(NCC(C)(C)C)c2c1)(c1cn(C(C)(C)C)nn1)c1ccccc1Cl [Example 1029, (S)-6-(((1-(tert-butyl)-1H-1,2,3-triazol-4-yl)(2-chlorophenyl)methyl-d)amino)-4-(neopentylamino)quinoline-3,8-dicarbonitrile]
82 | 5 | [2H][C@](Nc1cc(C#N)c2ncc(C#N)c(NCC(C)(C)C)c2c1)(c1cn(C2(C#N)CC2)nn1)c1ccccc1Cl [Example 1030, 6-(((2-chlorophenyl)(1-(1-cyanocyclopropyl)-1H-1,2,3-triazol-4-yl)methyl-d)amino)-4-(neopentylamino)quinoline-3,8-dicarbonitrile]
316 | 19 | CC(C)(CO)CNc1c(C#N)cnc2c(C#N)cc(N[C@H](c3cn(C4(C)CC4)nn3)c3ccccc3Cl)cc12 [Example 1035, (S)-6-(((2-chlorophenyl)(1-(1-methylcyclopropyl)-1H-1,2,3-triazol-4-yl)methyl)amino)-4-((3-hydroxy-2,2-dimethylpropyl)amino)quinoline-3,8-dicarbonitrile]
195 | 9 | CC(C)(C)CNc1c(C#N)cnc2c(C#N)cc(N[C@H](c3cn(C4(CF)CC4)nn3)c3ccccc3Cl)cc12 [Example 1036, (S)-6-(((2-chlorophenyl)(1-(1-(fluoromethyl)cyclopropyl)-1H-1,2,3-triazol-4-yl)methyl)amino)-4-(neopentylamino)quinoline-3,8-dicarbonitrile]
